Where two headings read alike, the source gives them in different places. Marks after values point to notes of the source that are not given here. Where only a bound is given, the exact number is not on record here.

Experiment in all cases: cell-based
For one test, the target named is human CB1 receptor (Homo sapiens, UniProt P21554).
For the next test, the target named is human CB2 receptor (Homo sapiens, UniProt P34972). Format: cell-based.
A further test deals with T1, rat CB2 receptor (Rattus norvegicus, UniProt Q9QZN9).
T1 sequence (Q9QZN9 1-360): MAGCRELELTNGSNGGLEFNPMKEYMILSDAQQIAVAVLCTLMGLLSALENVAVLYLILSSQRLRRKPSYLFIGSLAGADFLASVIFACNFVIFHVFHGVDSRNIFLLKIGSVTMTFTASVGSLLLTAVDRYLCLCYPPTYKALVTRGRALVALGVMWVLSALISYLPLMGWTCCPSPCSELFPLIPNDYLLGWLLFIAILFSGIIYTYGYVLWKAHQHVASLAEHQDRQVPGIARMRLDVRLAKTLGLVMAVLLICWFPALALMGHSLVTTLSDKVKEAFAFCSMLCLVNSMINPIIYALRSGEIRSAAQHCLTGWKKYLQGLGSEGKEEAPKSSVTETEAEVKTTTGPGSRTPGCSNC
Format: cell-based. The settings on record: for inverse agonist mark, rat CB2 receptor: asterisk at the compound number.

Sequence of human CB2 receptor (P34972 whole entry): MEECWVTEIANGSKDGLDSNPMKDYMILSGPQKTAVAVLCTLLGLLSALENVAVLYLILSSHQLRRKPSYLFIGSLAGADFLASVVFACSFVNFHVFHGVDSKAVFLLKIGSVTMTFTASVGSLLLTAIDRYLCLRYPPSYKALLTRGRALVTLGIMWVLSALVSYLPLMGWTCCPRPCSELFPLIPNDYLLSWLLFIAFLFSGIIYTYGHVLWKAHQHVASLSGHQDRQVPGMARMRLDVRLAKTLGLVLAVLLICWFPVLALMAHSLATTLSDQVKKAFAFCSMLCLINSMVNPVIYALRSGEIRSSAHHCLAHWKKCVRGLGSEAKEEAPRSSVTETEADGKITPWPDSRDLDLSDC
Sequence of human CB1 receptor (P21554 whole entry): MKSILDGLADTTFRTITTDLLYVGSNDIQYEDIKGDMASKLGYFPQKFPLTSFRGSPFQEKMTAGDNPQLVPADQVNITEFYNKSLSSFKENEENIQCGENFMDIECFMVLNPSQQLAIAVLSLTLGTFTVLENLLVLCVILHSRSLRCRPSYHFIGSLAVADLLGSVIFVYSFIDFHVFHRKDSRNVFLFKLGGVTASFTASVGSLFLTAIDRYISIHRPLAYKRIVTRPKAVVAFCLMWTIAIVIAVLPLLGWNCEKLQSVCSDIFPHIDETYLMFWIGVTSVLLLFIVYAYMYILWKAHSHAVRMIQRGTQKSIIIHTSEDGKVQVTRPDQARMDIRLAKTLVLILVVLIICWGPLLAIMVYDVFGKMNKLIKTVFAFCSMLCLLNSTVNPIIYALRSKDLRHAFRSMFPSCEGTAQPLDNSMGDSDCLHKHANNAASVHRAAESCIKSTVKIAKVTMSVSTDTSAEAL

Consider `CC(C)(C)c1cc(NC(=O)c2cnc3c(c2)N(S(=O)(=O)N2CCC(C(F)(F)F)CC2)CCO3)on1` [Example 153, N-(3-tert-butylisoxazol-5-yl)-1-(4-(trifluoromethyl)piperidin-1-ylsulfonyl)-2,3-dihydro-1H-pyrido[2,3-b][1,4]oxazine-7-carboxamide], for which the EC50 (usually the midpoint of the concentration-response curve) on human CB1 receptor is not above 0.3 µM; on human CB2 receptor, more than 30 µM; at rat CB2 receptor, not above 0.03 µM. Besides, the “inverse agonist mark, rat CB2 receptor” value at rat CB2 receptor is on record as 146, 148, 149, 150, 151, 152, 153*, 154*, 155, 156, 157, 163, 164,.
`CC(C)(CO)NC(=O)c1cnc2c(c1)N(S(=O)(=O)N1CCC(c3ccccc3)CC1)CCO2` [Example 160, N-(1-hydroxy-2-methylpropan-2-yl)-1-(4-phenylpiperidin-1-ylsulfonyl)-2,3-dihydro-1H-pyrido[2,3-b][1,4]oxazine-7-carboxamide]: the EC50 at human CB1 receptor, on human CB2 receptor and on rat CB2 receptor was more than 30 µM throughout.
The compound `CC(C)(C)c1cc(NC(=O)c2cnc3c(c2)N(S(=O)(=O)N2CCC(c4ccccc4)CC2)CCO3)no1` [Example 162, N-(5-tert-butylisoxazol-3-yl)-1-(4-phenylpiperidin-1-ylsulfonyl)-2,3-dihydro-1H-pyrido[2,3-b][1,4]oxazine-7-carboxamide] registered an EC50 on human CB1 receptor of more than 30 µM. For the same compound, the “inverse agonist mark, human CB2 receptor” value at human CB2 receptor (asterisk at the compound number) is on record as 128, 129, 130, 132, 133, 140, 141, 142, 143, 147, 148, 149, 162*,. In addition, at rat CB2 receptor, the “inverse agonist mark, rat CB2 receptor” value is recorded as 108, 114, 117, 122, 126, 128, 129, 130, 141, 147, 162*, 165*, 179,.
Turning to `CCC(C)(C)NC(=O)c1cnc2c(c1)N(S(=O)(=O)N1CCC(F)CC1)CCO2` [Example 167, 1-(4-fluoropiperidin-1-ylsulfonyl)-N-tert-pentyl-2,3-dihydro-1H-pyrido[2,3-b][1,4]oxazine-7-carboxamide], the EC50 on human CB1 receptor was more than 30 µM; on human CB2 receptor it was not above 0.03 µM; at rat CB2 receptor, not above 0.03 µM.
Consider `CCC(C)(C)NC(=O)c1cnc2c(c1)N(S(=O)(=O)N1CCC(N3CCCC3)CC1)CCO2` [Example 177, N-tert-pentyl-1-(4-(pyrrolidin-1-yl)piperidin-1-ylsulfonyl)-2,3-dihydro-1H-pyrido[2,3-b][1,4]oxazine-7-carboxamide], for which the EC50 on human CB1 receptor, at human CB2 receptor and at rat CB2 receptor was more than 30 µM throughout.
With `CC(C)(CO)NC(=O)c1cnc2c(c1)N(S(=O)(=O)N1CCC(Cl)CC1)CCO2` [Example 186, 1-(4-chloropiperidin-1-ylsulfonyl)-N-(1-hydroxy-2-methylpropan-2-yl)-2,3-dihydro-1H-pyrido[2,3-b][1,4]oxazine-7-carboxamide], the EC50 is more than 30 µM at human CB1 receptor, more than 30 µM at human CB2 receptor and not above 0.03 µM on rat CB2 receptor.
As to `CC(C)(CO)CNC(=O)c1cnc2c(c1)N(S(=O)(=O)N1CCc3ccccc3C1)CCO2` [Example 191, 1-(3,4-dihydroisoquinolin-2(1H)-ylsulfonyl)-N-(3-hydroxy-2,2-dimethylpropyl)-2,3-dihydro-1H pyrido[2,3-b][1,4]oxazine-7-carboxamide], the EC50 was more than 30 µM at human CB1 receptor, more than 30 µM on human CB2 receptor and not above 0.03 µM on rat CB2 receptor.
On to `CN(CC(C)(C)CO)C(=O)c1cnc2c(c1)N(S(=O)(=O)N1CCc3ccccc3C1)CCO2` [Example 192, 1-(3,4-dihydroisoquinolin-2(1H)-ylsulfonyl)-N-(3-hydroxy-2,2-dimethyl-propyl)-N-methyl-2,3-dihydro-1H-pyrido[2,3-b][1,4]oxazine-7-carboxamide], for which the EC50 at human CB1 receptor, at human CB2 receptor and on rat CB2 receptor was more than 30 µM throughout.
As to `CC(C)(C)NC(=O)c1cnc2c(c1)N(S(=O)(=O)N1CC(F)(F)C1)CCO2` [Example 193, N-tert-butyl-1-(3,3-difluoroazetidin-1-ylsulfonyl)-2,3-dihydro-1H-pyrido[2,3-b][1,4]oxazine-7-carboxamide], the EC50 at human CB1 receptor is more than 30 µM; at human CB2 receptor, more than 30 µM; on rat CB2 receptor it was not above 0.03 µM.
Consider `CCC(C)(C)NC(=O)c1cnc2c(c1)N(S(=O)(=O)N1CC(F)(F)C1)CCO2` [Example 194, 1-(3,3-difluoroazetidin-1-ylsulfonyl)-N-tert-pentyl-2,3-dihydro-1H-pyrido[2,3-b][1,4]oxazine-7-carboxamide], for which the values for the EC50 at human CB1 receptor, on human CB2 receptor and on rat CB2 receptor were more than 30 µM, more than 30 µM and not above 0.03 µM, respectively.
As for `O=C(NC1(C(=O)O)CC1)c1cnc2c(c1)N(S(=O)(=O)c1ccc(C(F)(F)F)cc1)CCO2` [Example 206, 1-(1-(4-(trifluoromethyl)phenylsulfonyl)-2,3-dihydro-1H-pyrido[2,3-b][1,4]oxazine-7-carboxamido)cyclopropanecarboxylic acid], the EC50 was more than 30 µM on human CB1 receptor; more than 30 µM at human CB2 receptor (change in intracellular cAMP, CHO-K1 hCB2 cells, class AR, read-out: EC50 values for human CB2 receptor); more than 30 µM on rat CB2 receptor.
Take `CC(C)(C)NC(=O)c1cnc2c(c1)N(Cc1ccc(F)cc1)C(=O)CO2` [Example 218, N-tert-butyl-1-(4-fluorobenzyl)-2-oxo-2,3-dihydro-1H-pyrido[2,3-b][1,4]oxazine-7-carboxamide]: the EC50 was more than 30 µM at human CB1 receptor, not above 0.03 µM on human CB2 receptor and not above 0.03 µM on rat CB2 receptor.

(Values after patent US7960377B2 (priority 2008, dated 2011).)
